Test results taken from patent publication US11053454B2, “Fragrance compositions comprising essential oils and products comprising same for promoting wellness” (THIS WORKS PRODUCTS LIMITED, priority 2018, dated 2021).
Where two headings read alike, the source gives them in different places.

System: primary olfactory cortex (piriform cortex)
Test: fMRI connectivity analysis with piriform cortex as seed
Type: in vivo, human
Experimental: The pre-processed data were analyzed with the connectivity toolbox in SPM. The primary olfactory cortex (piriform cortex) was used as a seed and the connectivity from this very first olfactory target area to other areas in the brain was modeled. A statistical threshold of 0.05, FDR corrected, was used.

Compound: OCCc1ccccc1 [PEA, Phenylethylalcohol]
- negative connectivity from the piriform cortex: negative connectivity to the posterior cingulate cortex
- negative connectivity from the piriform cortex (listed as control odor): negative connectivity was detected to the left parietal frontal gyrus
- overall connectivity: intensity (threshold 0.05 FDR corrected): 170
- overall connectivity: nodes (threshold 0.05 FDR corrected): 41 nodes
